# Values of other authors in patent US6503920B1, “Cabergoline and pramipexole: new uses and combinations” (Pharmacia & Upjohn Company, priority 1998, dated 2003).
# How the values were obtained:
# PSP patients [1] = details: controlled trial of 7 subjects
# PSP patients [2] = details: 10 patients, double blind crossover
# PSP patients [3] = test system: PSP patients
# PSP patients [4] = details: 750-1500 mg per day
# PSP patients [5] = details: controlled trial
# PSP patients [6] = details: 120 mg/day, 2-week open label, two patients
smiles,measurement,setting,value
CCN(CC)C(=O)N[C@H]1C=C2c3cccc4[nH]cc(c34)C[C@H]2N(C)C1 [Lisuride],overall result of the trial,PSP patients [1],not any significant results
same,patients with mild improvement,PSP patients [1],two patients had a mild improvement
CCN1C(=O)CC2(CCN(C)CC2)C1=O [RS-86],motor or cognitive changes,PSP patients [2],no consistent motor or cognitive changes
N[C@@H](Cc1ccc(O)c(O)c1)C(=O)O [L-dopa],most common side effects reported,PSP patients [3],development of hallucinations
same,patients showing no effect,PSP patients [4],44%
same,response rate showing mild to moderate improvement on the basis of clinical impressions,PSP patients [4],54%
CCCN1C[C@H](CSC)C[C@@H]2c3cccc4[nH]cc(c34)C[C@H]21 [Pergoline],subjects with mild antiparkinsonian effects,PSP patients [5],2/3
c1ccc2c(c1)OCC(C1=NCCN1)O2 (stereo not drawn) [Idazoxan],marginal improvement,PSP patients [6],12-34%
same,side effects,PSP patients [6],sympathetic side effects were common
